Paper PMC9504419, “Multipotent Cholinesterase Inhibitors for the Treatment of Alzheimer’s Disease: Synthesis, Biological Analysis and Molecular Docking Study of Benzimidazole-Based Thiazole Derivatives” (Molecules, 2022)
Where two headings read alike, the source gives them in different places.

Legend:
AChE = AChE (Homo sapiens, UniProt P22303); experiment: biochemical; type: biochemical; conditions: for Selectivity Index: AChE and BuChE IC50 values
Description: (§1) The inhibition of AChE and BChE was determined using a method described earlier. Briefly, the stock solutions (1 mg/mL) of test analogues were prepared using DMSO. The working solutions (1–100 μg/mL) were prepared using serial dilutions (a serial dilution means a series of diluted solutions, e.g., 0.1 mg/mL, 0.2 mg/mL and so on; the solutions contained 5% DMSO and 95% water). The various concentrations of test compounds (10 μL) were pre-incubated with sodium phosphate buffer (0.1 M; pH 8.0; 150 μL) and AChE (0.1 U/mL; 20 μL) for 15 min at 25 °C. The reaction was initiated via the addition of DTNB (1 mM; 10 μL) and […] (1 mM; 10 μL). The mixture of reaction was mixed using a cyclomixer and incubated for 10 min at 25 °C. The absorbance was measured using a microplate reader at a 410 nm wavelength against the blank reading containing 10μL DMSO instead of the test compound (the solution contained 5% DMSO and 95% water).
(§2) % Inhibition = (Absorbance of control—Absorbance of compound)/Absorbance of control × 100

BuChE = BuChE (Homo sapiens, UniProt P06276); experiment: biochemical; type: biochemical
Description: as §1, §2

brain AChE = conditions: similar degree of brain AChE inhibition; cited from earlier work

BuChE, sequence (P06276 29-602): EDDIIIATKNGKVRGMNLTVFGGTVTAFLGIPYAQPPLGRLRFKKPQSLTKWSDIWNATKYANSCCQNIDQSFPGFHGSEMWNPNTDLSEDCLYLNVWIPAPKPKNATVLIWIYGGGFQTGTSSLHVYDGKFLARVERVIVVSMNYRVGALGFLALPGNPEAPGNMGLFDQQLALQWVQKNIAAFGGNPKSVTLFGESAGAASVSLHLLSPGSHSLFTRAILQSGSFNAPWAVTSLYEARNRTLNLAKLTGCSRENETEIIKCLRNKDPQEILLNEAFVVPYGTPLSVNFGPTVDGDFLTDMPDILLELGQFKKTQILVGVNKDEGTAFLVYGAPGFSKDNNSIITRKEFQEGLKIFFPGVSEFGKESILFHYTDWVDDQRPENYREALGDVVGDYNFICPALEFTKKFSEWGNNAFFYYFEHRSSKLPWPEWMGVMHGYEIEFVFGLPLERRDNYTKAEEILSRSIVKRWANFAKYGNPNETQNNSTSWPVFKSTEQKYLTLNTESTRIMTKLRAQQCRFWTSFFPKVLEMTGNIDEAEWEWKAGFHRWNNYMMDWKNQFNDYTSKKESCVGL
AChE, sequence (P22303 32-614): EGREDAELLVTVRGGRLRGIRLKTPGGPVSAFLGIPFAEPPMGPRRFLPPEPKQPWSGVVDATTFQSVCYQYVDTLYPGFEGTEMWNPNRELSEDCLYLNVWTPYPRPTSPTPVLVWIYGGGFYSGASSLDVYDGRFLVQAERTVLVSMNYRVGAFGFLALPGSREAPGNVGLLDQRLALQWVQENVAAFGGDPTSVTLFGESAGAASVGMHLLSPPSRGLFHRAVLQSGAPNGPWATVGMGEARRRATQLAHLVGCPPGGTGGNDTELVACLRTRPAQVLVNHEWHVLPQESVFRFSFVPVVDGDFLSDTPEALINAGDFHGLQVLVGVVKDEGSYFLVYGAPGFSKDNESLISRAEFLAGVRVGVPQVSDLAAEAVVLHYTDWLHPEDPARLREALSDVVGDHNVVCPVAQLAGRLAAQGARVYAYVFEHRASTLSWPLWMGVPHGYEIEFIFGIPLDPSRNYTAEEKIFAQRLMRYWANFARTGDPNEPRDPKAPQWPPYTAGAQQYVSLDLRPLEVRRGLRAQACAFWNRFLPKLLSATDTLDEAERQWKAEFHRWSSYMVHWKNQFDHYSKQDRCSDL

Structure (SMILES): Clc1ccc(/C(CSc2nc3ccccc3[nH]2)=N\Nc2nc(-c3ccc(Cl)c(Cl)c3)cs2)cc1Cl [compound 21, (E)-2-(2-(2-((1H-benzo[d]imidazol-2-yl)thio)-1-(3,4-dichlorophenyl)ethylidene) hydrazinyl)-4-(3,4-dichlorophenyl)thiazole]
- Selectivity Index (AChE): 2.0
- IC50 (AChE; read-out: IC50AChE): 100 ± 50 nM
- IC50 (BuChE; read-out: IC50BuChE): 200 ± 50 nM

Structure (SMILES): Cc1ccc(/C(CSc2nc3ccccc3[nH]2)=N\Nc2nc(-c3cc(Cl)c(O)cc3[N+](=O)[O-])cs2)c([N+](=O)[O-])c1 [compound 12, (E)-4-(2-(2-(2-((1H-benzo[d]imidazol-2-yl)thio)-1-(4-methyl-2-nitrophenyl)ethylidene)hydrazinyl)thiazol-4-yl)-2-chloro-5-nitrophenol]
- IC50 (AChE): 1400 ± 100 nM
- Selectivity Index (AChE): 1.5
- IC50 (BuChE): 2100 ± 100 nM

Structure (SMILES): COc1cccc(-c2csc(N/N=C(/CSc3nc4ccccc4[nH]3)c3ccc(Cl)c(Cl)c3)n2)c1 [compound 20, (E)-2-(2-(2-((1H-benzo[d]imidazol-2-yl)thio)-1-(3,4-dichlorophenyl)ethylidene) hydrazinyl)-4-(3-methoxyphenyl)thiazole]
- Selectivity Index (AChE): 1.58
- IC50 (AChE; read-out: IC50AChE): 1200 ± 100 nM
- IC50 (BuChE; read-out: IC50BuChE): 1900 ± 100 nM

Structure (SMILES): Cc1ccc(/C(CSc2nc3ccccc3[nH]2)=N\Nc2nc(-c3cccc([N+](=O)[O-])c3)cs2)cc1 [compound 8, (E)-2-(2-(2-((1H-benzo[d]imidazol-2-yl)thio)-1-(p-tolyl)ethylidene)hydrazinyl)-4-(3-nitrophenyl)thiazole]
- Selectivity Index (AChE): 1.25
- IC50 (AChE; read-out: IC50AChE): 6300 ± 100 nM
- IC50 (BuChE; read-out: IC50BuChE): 7900 ± 100 nM

Structure (SMILES): COc1ccccc1-c1csc(N/N=C(/CSc2nc3ccccc3[nH]2)c2ccc(Cl)c(Cl)c2)n1 [compound 22, (E)-2-(2-(2-((1H-benzo[d]imidazol-2-yl)thio)-1-(3,4-dichlorophenyl)ethylidene) hydrazinyl)-4-(2-methoxyphenyl)thiazole]
- Selectivity Index (AChE): 1.75
- IC50 (AChE; read-out: IC50AChE): 400 ± 200 nM
- IC50 (BuChE; read-out: IC50BuChE): 700 ± 100 nM

Structure (SMILES): COc1cccc(-c2csc(N/N=C(/CSc3nc4ccccc4[nH]3)c3ccccc3)n2)c1 [compound 4, (E)-2-(2-(2-((1H-benzo[d]imidazol-2-yl)thio)-1-phenylethylidene)hydrazinyl)-4-(3-methoxyphenyl)thiazole]
- Selectivity Index (AChE): 1.51
- IC50 (AChE; read-out: IC50AChE): 3500 ± 100 nM
- IC50 (BuChE; read-out: IC50BuChE): 5300 ± 100 nM

Structure (SMILES): O=[N+]([O-])c1cc(O)c(Cl)cc1-c1csc(N/N=C(/CSc2nc3ccccc3[nH]2)c2cccc(O)c2[N+](=O)[O-])n1 [compound 9, (E)-4-(2-(2-(2-((1H-benzo[d]imidazol-2-yl)thio)-1-(3-hydroxy-2-nitrophenyl)ethylidene)hydrazinyl)thiazol-4-yl)-2-chloro-5-nitrophenol]
- IC50 (AChE): 1300 ± 100 nM
- Selectivity Index (AChE): 2.46
- IC50 (BuChE): 3200 ± 100 nM

Structure (SMILES): O=[N+]([O-])c1ccccc1-c1csc(N/N=C(/CSc2nc3ccccc3[nH]2)c2ccc(Cl)c(Cl)c2)n1 [compound 17, (E)-2-(2-(2-((1H-benzo[d]imidazol-2-yl)thio)-1-(3,4-dichlorophenyl)ethylidene) hydrazinyl)-4-(2-nitrophenyl)thiazole]
- Selectivity Index (AChE): 1.64
- IC50 (AChE; read-out: IC50AChE): 1100 ± 50 nM
- IC50 (BuChE; read-out: IC50BuChE): 1800 ± 100 nM

Structure (SMILES): O=[N+]([O-])c1ccccc1/C(CSc1nc2ccccc2[nH]1)=N\Nc1nc(-c2ccc(Cl)c(Cl)c2)cs1 [compound 15, (E)-2-(2-(2-((1H-benzo[d]imidazol-2-yl)thio)-1-(2-nitrophenyl)ethylidene) hydrazinyl)-4-(3,4-dichlorophenyl)thiazole]
- Selectivity Index (AChE): 2.33
- IC50 (AChE; read-out: IC50AChE): 300 ± 50 nM
- IC50 (BuChE; read-out: IC50BuChE): 700 ± 50 nM

Structure (SMILES): Cc1ccc(/C(CSc2nc3ccccc3[nH]2)=N\Nc2nc(-c3ccccc3[N+](=O)[O-])cs2)cc1 [compound 7, (E)-2-(2-(2-((1H-benzo[d]imidazol-2-yl)thio)-1-(p-tolyl)ethylidene)hydrazinyl)-4-(2-nitrophenyl)thiazole]
- Selectivity Index (AChE): 1.21
- IC50 (AChE; read-out: IC50AChE): 2900 ± 100 nM
- IC50 (BuChE; read-out: IC50BuChE): 3500 ± 100 nM

Structure (SMILES): COc1cccc(-c2csc(N/N=C(/CSc3nc4ccccc4[nH]3)c3ccccc3[N+](=O)[O-])n2)c1 [compound 14, (E)-2-(2-(2-((1H-benzo[d]imidazol-2-yl)thio)-1-(2-nitrophenyl)ethylidene) hydrazinyl)-4-(3-methoxyphenyl)thiazole]
- Selectivity Index (AChE): 1.35
- IC50 (AChE; read-out: IC50AChE): 3100 ± 100 nM
- IC50 (BuChE; read-out: IC50BuChE): 4200 ± 100 nM

Structure (SMILES): Cc1ccc(-c2csc(N/N=C(/CSc3nc4ccccc4[nH]3)c3ccc(Cl)c(Cl)c3)n2)cc1 [compound 19, (E)-2-(2-(2-((1H-benzo[d]imidazol-2-yl)thio)-1-(3,4-dichlorophenyl)ethylidene) hydrazinyl)-4-(p-tolyl)thiazole]
- Selectivity Index (AChE): 0.92
- IC50 (AChE; read-out: IC50AChE): 1400 ± 100 nM
- IC50 (BuChE; read-out: IC50BuChE): 1300 ± 100 nM

Structure (SMILES): Cc1ccc(/C(CSc2nc3ccccc3[nH]2)=N\Nc2nc(-c3ccc(Cl)c(Cl)c3)cs2)cc1 [compound 11, (E)-2-(2-(2-((1H-benzo[d]imidazol-2-yl)thio)-1-(p-tolyl)ethylidene)hydrazinyl)-4-(3,4-dichlorophenyl)thiazole]
- Selectivity Index (AChE): 2.75
- IC50 (AChE; read-out: IC50AChE): 400 ± 50 nM
- IC50 (BuChE; read-out: IC50BuChE): 1100 ± 100 nM

Structure (SMILES): Oc1ccc(-c2csc(N/N=C(/CSc3nc4ccccc4[nH]3)c3ccccc3)n2)cc1 [compound 3, (E)-4-(2-(2-(2-((1H-benzo[d]imidazol-2-yl)thio)-1-phenylethylidene) hydrazinyl)thiazol-4-yl)phenol]
- Selectivity Index (AChE): 2.25
- IC50 (AChE; read-out: IC50AChE): 800 ± 100 nM
- IC50 (BuChE; read-out: IC50BuChE): 1800 ± 100 nM

Structure (SMILES): Clc1ccc(-c2csc(N/N=C(/CSc3nc4ccccc4[nH]3)c3ccccc3)n2)cc1Cl [compound 6, (E)-2-(2-(2-((1H-benzo[d]imidazol-2-yl)thio)-1-phenylethylidene)hydrazinyl)-4-(3,4-dichlorophenyl)thiazole]
- Selectivity Index (AChE): 2.0
- IC50 (AChE; read-out: IC50AChE): 700 ± 50 nM
- IC50 (BuChE; read-out: IC50BuChE): 1400 ± 50 nM

Structure (SMILES): Cc1ccc(/C(CSc2nc3ccccc3[nH]2)=N\Nc2nc(-c3ccc(C)cc3)cs2)cc1 [compound 24, (E)-2-(2-(2-((1H-benzo[d]imidazol-2-yl)thio)-1-(p-tolyl)ethylidene)hydrazinyl)-4-(p-tolyl)thiazole]
- Selectivity Index (AChE): 1.28
- IC50 (AChE; read-out: IC50AChE): 11100 ± 300 nM
- IC50 (BuChE; read-out: IC50BuChE): 14200 ± 100 nM

Structure (SMILES): O=[N+]([O-])c1cccc(-c2csc(N/N=C(/CSc3nc4ccccc4[nH]3)c3ccc(Cl)c(Cl)c3)n2)c1 [compound 18, (E)-2-(2-(2-((1H-benzo[d]imidazol-2-yl)thio)-1-(3,4-dichlorophenyl)ethylidene) hydrazinyl)-4-(3-nitrophenyl)thiazole]
- Selectivity Index (AChE): 1.71
- IC50 (AChE; read-out: IC50AChE): 700 ± 50 nM
- IC50 (BuChE; read-out: IC50BuChE): 1200 ± 100 nM

Structure (SMILES): CN(C)c1cc([N+](=O)[O-])c(-c2csc(N/N=C(/CSc3nc4ccccc4[nH]3)c3ccc(-c4ccccc4)cc3)n2)cc1O [compound 10, (E)-5-(2-(2-(2-((1H-benzo[d]imidazol-2-yl)thio)-1-([1,1’-biphenyl]-4-yl)ethylidene)hydrazinyl)thiazol-4-yl)-2-(dimethylamino)-4-nitrophenol]
- IC50AChE (AChE): inactivity
- IC50BuChE (BuChE): inactivity

Structure (SMILES): Clc1ccc(/C(CSc2nc3ccccc3[nH]2)=N\Nc2nc(-c3ccc(Br)cc3)cs2)cc1Cl [compound 23, (E)-2-(2-(2-((1H-benzo[d]imidazol-2-yl)thio)-1-(3,4-dichlorophenyl)ethylidene) hydrazinyl)-4-(4-bromophenyl)thiazole]
- Selectivity Index (AChE): 1.43
- IC50 (AChE; read-out: IC50AChE): 4700 ± 100 nM
- IC50 (BuChE; read-out: IC50BuChE): 6700 ± 100 nM

Structure (SMILES): COc1ccc2c3c1O[C@H]1C[C@@H](O)C=C[C@@]31CCN(C)C2 [Galantamine]
- doses needed, times greater than those of Donepezil (brain AChE): 3–15 times

Structure (SMILES): Cc1ccc(-c2csc(N/N=C(/CSc3nc4ccccc4[nH]3)c3ccccc3)n2)cc1 [compound 5, (E)-2-(2-(2-((1H-benzo[d]imidazol-2-yl)thio)-1-phenylethylidene)hydrazinyl)-4-(p-tolyl)thiazole]
- Selectivity Index (AChE): 1.24
- IC50 (AChE; read-out: IC50AChE): 8600 ± 200 nM
- IC50 (BuChE; read-out: IC50BuChE): 10700 ± 200 nM

Structure (SMILES): Cc1ccc(-c2csc(N/N=C(/CSc3nc4ccccc4[nH]3)c3ccccc3[N+](=O)[O-])n2)cc1 [compound 13, (E)-2-(2-(2-((1H-benzo[d]imidazol-2-yl)thio)-1-(2-nitrophenyl)ethylidene) hydrazinyl)-4-(p-tolyl)thiazole]
- Selectivity Index (AChE): 1.59
- IC50 (AChE; read-out: IC50AChE): 3200 ± 100 nM
- IC50 (BuChE; read-out: IC50BuChE): 5100 ± 100 nM

Structure (SMILES): O=[N+]([O-])c1cc(O)c(Cl)cc1-c1csc(N/N=C(/CSc2nc3ccccc3[nH]2)c2ccccc2O)n1 [compound 2, (E)-4-(2-(2-(2-((1H-benzo[d]imidazol-2-yl)thio)-1-(2-hydroxyphenyl)ethylidene)hydrazinyl)thiazol-4-yl)-2-chloro-5-nitrophenol]
- IC50 (AChE; read-out: IC50AChE): 2300 ± 100 nM
- IC50 (BuChE; read-out: IC50BuChE): 3200 ± 100 nM

Structure (SMILES): O=[N+]([O-])c1ccccc1/C(CSc1nc2ccccc2[nH]1)=N\Nc1nc(-c2ccc(O)cc2)cs1 [compound 16, (E)-4-(2-(2-(2-((1H-benzo[d]imidazol-2-yl)thio)-1-(2-nitrophenyl)ethylidene) hydrazinyl)thiazol-4-yl)phenol]
- Selectivity Index (AChE): 2.5
- IC50 (AChE; read-out: IC50AChE): 200 ± 50 nM
- IC50 (BuChE; read-out: IC50BuChE): 500 ± 50 nM
